# Assay results reported in patent publication US6914045B2, “Glycopeptide antibiotics” (Wyeth Holdings Corporation, priority 2001, dated 2005).
# Assays:
# Assay in all cases: in vitro antibacterial evaluation, MIC by broth dilution
# Type in all cases: cell-based
# [1] = test system: Enterococcus sp.; details: broth dilution, 18 hours at 35° C.
# Procedure, shortened: (§1)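 Read-out: the lowest concentration at which the test strain fails to grow. Serial dilutions (64-0.06 μg/mL) in Muller-Hinton II […], 5×10^5 CFU/mL inoculum, NCCLS M7-A2 procedure.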
# [2] = test system: Streptococcus sp.; details: broth dilution, 18 hours at 35° C.
# Procedure, shortened: as §1
# [3] = test system: Staphylococcus sp.; details: broth dilution, 18 hours at 35° C.; for MIC Staphylococcus aureus (GC 1131): strain GC 1131; for MIC Staphylococcus aureus (ATCC 29213): strain ATCC 29213; for MIC Staphylococcus aureus (GC 3051): strain GC 3051; for MIC Staphylococcus aureus (GC 3053): strain GC 3053; for MIC Staphylococcus aureus (GC 4541): strain GC 4541; for MIC Staphylococcus aureus (GC 4542): strain GC 4542; for MIC Staphylococcus aureus-SMITH (GC 4543): strain GC 4543; for MIC Staphylococcus aureus (GC 4544): strain GC 4544; for MIC Staphylococcus aureus (GC 4545): strain GC 4545; for MIC Staphylococcus haemolyticus (GC 4546): strain GC 4546; for MIC Coagulase Negative Staphylococcus (GC 4547): strain GC 4547; for MIC Coagulase Negative Staphylococcus (GC 4548): strain GC 4548; for MIC Coagulase Negative Staphylococcus (GC 4549): strain GC 4549; for MIC Coagulase Negative Staphylococcus (GC 4551): strain GC 4551; for MIC Coagulase Negative Staphylococcus (GC 6257): strain GC 6257
# Procedure, shortened: as §1
# [4] = test system: Escherichia coli; details: 18 hours at 35° C.
smiles,measurement,setting,value
COc1ccc2cc(C3OCC4OC(OC5C(CO)OC(Oc6ccc(CC7NC(=O)C(C(C)c8ccccc8)NC(=O)CNC(=O)C(CO)NC(=O)C(CC8CNC(=N)N8C8OC(CO)C(O)C(O)C8O)NC(=O)C(CC8CNC(=N)N8)NC7=O)cc6)C(O)C5O)C(O)C(O)C4O3)ccc2c1 (stereo not shown) [Example 190],MIC Enterococcus avium (GC 4558),[1],16 µg/mL
same,MIC Enterococcus faecalis (ATCC 29212),[1],32 µg/mL
same,MIC Enterococcus faecalis (GC 2242),[1],32 µg/mL
same,MIC Enterococcus faecalis (GC 2691),[1],32 µg/mL
same,MIC Enterococcus faecalis (GC 3059),[1],32 µg/mL
same,MIC Enterococcus faecalis (GC 4552),[1],32 µg/mL
same,MIC Enterococcus faecalis (GC 4553),[1],32 µg/mL
same,MIC Enterococcus faecalis (GC 4554),[1],32 µg/mL
same,MIC Enterococcus faecalis (GC 6189),[1],32 µg/mL
same,MIC Enterococcus faecium (GC 2243),[1],32 µg/mL
same,MIC Enterococcus faecium (GC 4556),[1],32 µg/mL
same,MIC Enterococcus faecium (GC 4557),[1],8 µg/mL
same,MIC Enterococcus faecalis (ATCC 29212),"[1]; inoculum 5×10^5 CFU/mL, strain ATCC 29212",32 µg/mL
same,MIC Enterococcus faecalis (GC 2242),"[1]; inoculum 5×10^5 CFU/mL, strain GC 2242",32 µg/mL
same,MIC Enterococcus faecium (GC 2243),"[1]; inoculum 5×10^5 CFU/mL, strain GC 2243",32 µg/mL
same,MIC Enterococcus faecalis (GC 2691),"[1]; inoculum 5×10^5 CFU/mL, strain GC 2691",32 µg/mL
same,MIC Enterococcus faecalis (GC 3059),"[1]; inoculum 5×10^5 CFU/mL, strain GC 3059",32 µg/mL
same,MIC Enterococcus faecalis (GC 4552),"[1]; inoculum 5×10^5 CFU/mL, strain GC 4552",32 µg/mL
same,MIC Enterococcus faecalis (GC 4553),"[1]; inoculum 5×10^5 CFU/mL, strain GC 4553",32 µg/mL
same,MIC Enterococcus faecalis (GC 4554),"[1]; inoculum 5×10^5 CFU/mL, strain GC 4554",32 µg/mL
same,MIC Enterococcus faecium (GC 4556),"[1]; inoculum 5×10^5 CFU/mL, strain GC 4556",32 µg/mL
same,MIC Enterococcus faecium (GC 4557),"[1]; inoculum 5×10^5 CFU/mL, strain GC 4557",8 µg/mL
same,MIC Enterococcus avium (GC 4558),"[1]; inoculum 5×10^5 CFU/mL, strain GC 4558",16 µg/mL
same,MIC Enterococcus faecalis (GC 6189),"[1]; inoculum 5×10^5 CFU/mL, strain GC 6189",32 µg/mL
same,MIC Streptococcus agalactiae (GC 4564),[2],16 µg/mL
same,MIC Streptococcus pneumoniae (ATCC 6301),[2],8 µg/mL
same,MIC Streptococcus pneumoniae (GC 1894),[2],4 µg/mL
same,MIC Streptococcus pneumoniae (GC 4565),[2],8 µg/mL
same,MIC Streptococcus pyogenes (GC 4563),[2],16 µg/mL
same,MIC Streptococcus pneumoniae (ATCC 6301),"[2]; inoculum 5×10^5 CFU/mL, strain ATCC 6301",8 µg/mL
same,MIC Streptococcus pneumoniae (GC 1894),"[2]; inoculum 5×10^5 CFU/mL, strain GC 1894",4 µg/mL
same,MIC Streptococcus pyogenes (GC 4563),"[2]; inoculum 5×10^5 CFU/mL, strain GC 4563",16 µg/mL
same,MIC Streptococcus agalactiae (GC 4564),"[2]; inoculum 5×10^5 CFU/mL, strain GC 4564",16 µg/mL
same,MIC Streptococcus pneumoniae (GC 4565),"[2]; inoculum 5×10^5 CFU/mL, strain GC 4565",8 µg/mL
same,MIC Staphylococcus aureus (GC 1131),[3]; inoculum 5×10^5 CFU/mL,16 µg/mL
same,MIC Staphylococcus aureus (ATCC 29213),[3],16 µg/mL
same,MIC Staphylococcus aureus (GC 1131),[3],16 µg/mL
same,MIC Staphylococcus aureus (GC 3051),[3],16 µg/mL
same,MIC Staphylococcus aureus (GC 3053),[3],16 µg/mL
same,MIC Staphylococcus aureus (GC 4541),[3],8 µg/mL
same,MIC Staphylococcus aureus (GC 4542),[3],4 µg/mL
same,MIC Staphylococcus aureus-SMITH (GC 4543),[3],4 µg/mL
same,MIC Staphylococcus aureus (GC 4544),[3],16 µg/mL
same,MIC Staphylococcus aureus (GC 4545),[3],16 µg/mL
same,MIC Staphylococcus haemolyticus (GC 4546),[3],8 µg/mL
same,MIC Coagulase Negative Staphylococcus (GC 4547),[3],8 µg/mL
same,MIC Coagulase Negative Staphylococcus (GC 4548),[3],8 µg/mL
same,MIC Coagulase Negative Staphylococcus (GC 4549),[3],8 µg/mL
same,MIC Coagulase Negative Staphylococcus (GC 4551),[3],16 µg/mL
same,MIC Coagulase Negative Staphylococcus (GC 6257),[3],8 µg/mL
same,MIC Escherichia coli (ATCC 25922),[4],>64 µg/mL
same,MIC Escherichia coli (GC 4559),[4],>64 µg/mL
same,MIC Escherichia coli (GC 4560),[4],16 µg/mL
"CC(c1ccccc1)C1NC(=O)CNC(=O)C(CO)NC(=O)C(C(O)C2CNC(=N)N2C2OC(CO)C(O)C(O)C2O)NC(=O)C(C(O)C2CNC(=N)N2)NC(=O)C(Cc2ccc3oc(-c4ccc(C(C)(C)C)cc4)nc3c2)NC1=O (stereo not drawn) [Example 32, Cyclo[3-[2-(4-tert-butylphenyl)-1,3-benzoxazol-5-yl]alanyl-3-(2-iminoimidazolidin-4-yl)seryl-3-(3-hexopyranosyl-2-iminoimidazolidin-4-yl)serylserylglycyl-β-methylphenylalanyl]]",MIC Enterococcus faecalis (ATCC 29212),[1]; strain ATCC 29212,8 µg/mL
same,MIC Enterococcus faecalis (GC 2242),[1]; strain GC 2242,4 µg/mL
same,MIC Enterococcus faecium (GC 2243),[1]; strain GC 2243,4 µg/mL
same,MIC Enterococcus faecalis (GC 2691),[1]; strain GC 2691,8 µg/mL
same,MIC Enterococcus faecalis (GC 3059),[1]; strain GC 3059,8 µg/mL
same,MIC Enterococcus faecalis (GC 4552),[1]; strain GC 4552,8 µg/mL
same,MIC Enterococcus faecalis (GC 4553),[1]; strain GC 4553,8 µg/mL
same,MIC Enterococcus faecalis (GC 4554),[1]; strain GC 4554,4 µg/mL
same,MIC Enterococcus faecium (GC 4556),[1]; strain GC 4556,8 µg/mL
same,MIC Enterococcus faecium (GC 4557),[1]; strain GC 4557,2 µg/mL
same,MIC Enterococcus avium (GC 4558),[1]; strain GC 4558,4 µg/mL
same,MIC Enterococcus faecalis (GC 6189),[1]; strain GC 6189,4 µg/mL
same,MIC Streptococcus pneumoniae (ATCC 6301),[2]; strain ATCC 6301,16 µg/mL
same,MIC Streptococcus pneumoniae (GC 1894),[2]; strain GC 1894,16 µg/mL
same,MIC Streptococcus pyogenes (GC 4563),[2]; strain GC 4563,8 µg/mL
same,MIC Streptococcus agalactiae (GC 4564),[2]; strain GC 4564,16 µg/mL
same,MIC Streptococcus pneumoniae (GC 4565),[2]; strain GC 4565,16 µg/mL
same,MIC Staphylococcus aureus (ATCC 29213),[3],4 µg/mL
same,MIC Staphylococcus aureus (GC 1131),[3],2 µg/mL
same,MIC Staphylococcus aureus (GC 3051),[3],2 µg/mL
same,MIC Staphylococcus aureus (GC 3053),[3],4 µg/mL
same,MIC Staphylococcus aureus (GC 4541),[3],2 µg/mL
same,MIC Staphylococcus aureus (GC 4542),[3],2 µg/mL
same,MIC Staphylococcus aureus-SMITH (GC 4543),[3],2 µg/mL
same,MIC Staphylococcus aureus (GC 4544),[3],2 µg/mL
same,MIC Staphylococcus aureus (GC 4545),[3],2 µg/mL
same,MIC Staphylococcus haemolyticus (GC 4546),[3],2 µg/mL
same,MIC Coagulase Negative Staphylococcus (GC 4547),[3],2 µg/mL
same,MIC Coagulase Negative Staphylococcus (GC 4548),[3],1 µg/mL
same,MIC Coagulase Negative Staphylococcus (GC 4549),[3],2 µg/mL
same,MIC Coagulase Negative Staphylococcus (GC 4551),[3],4 µg/mL
same,MIC Coagulase Negative Staphylococcus (GC 6257),[3],2 µg/mL
same,MIC Escherichia coli (ATCC 25922),"[4]; strain ATCC 25922, broth dilution",16 µg/mL
same,MIC Escherichia coli (GC 4559),"[4]; strain GC 4559, broth dilution",16 µg/mL
same,MIC Escherichia coli (GC 4560),"[4]; strain GC 4560, broth dilution",4 µg/mL
